Measured values taken from ChEMBL document CHEMBL4477268, “2-(4-Fluorophenyl)-quinazolin-4(3H)-one as a novel tyrosinase inhibitor: Synthesis, inhibitory activity, and mechanism” (Bioorg Med Chem, 2016).
Calls of active or inactive are those of the source. The rule behind the calls is not given here.

Key:
[1] = target: T1, Tyrosinase (Agaricus bisporus) (UniProt O42713); assay: (§1) Inhibition of diphenolase activity of mushroom tyrosinase using L-DOPA as substrate by spectrophotometric analysis
T1 sequence (whole entry): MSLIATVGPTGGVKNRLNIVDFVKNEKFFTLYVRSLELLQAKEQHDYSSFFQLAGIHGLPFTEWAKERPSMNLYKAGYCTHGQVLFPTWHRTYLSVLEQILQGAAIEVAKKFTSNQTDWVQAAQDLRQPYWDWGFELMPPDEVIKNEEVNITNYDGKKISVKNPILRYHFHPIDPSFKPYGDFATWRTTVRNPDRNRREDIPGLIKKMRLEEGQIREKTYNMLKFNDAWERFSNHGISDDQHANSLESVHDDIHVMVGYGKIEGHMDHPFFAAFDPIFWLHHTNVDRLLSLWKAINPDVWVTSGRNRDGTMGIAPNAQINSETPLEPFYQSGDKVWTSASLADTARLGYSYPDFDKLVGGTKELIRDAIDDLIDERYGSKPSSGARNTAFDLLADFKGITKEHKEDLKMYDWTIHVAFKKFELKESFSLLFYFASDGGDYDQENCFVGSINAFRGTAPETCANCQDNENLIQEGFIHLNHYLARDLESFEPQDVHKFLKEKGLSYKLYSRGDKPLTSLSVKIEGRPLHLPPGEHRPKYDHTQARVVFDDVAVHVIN

Tyrosinase [2] = target: T2, Tyrosinase (Agaricus bisporus, UniProt O42713); assay: as §1
T2 sequence (O42713 whole entry): T1 sequence (whole entry)

Tyrosinase [3] = target: T2, Tyrosinase; assay: Mixed-type reversible inhibition of diphenolase activity of mushroom tyrosinase using L-DOPA as substrate by Lineweaver-Burk double reciprocal-plot analysis
Tyrosinase [4] = target: T2, Tyrosinase; assay: Mixed-type reversible inhibition of diphenolase activity of mushroom tyrosinase assessed as enzyme-substrate complex using L-DOPA as substrate by Lineweaver-Burk double reciprocal plot analysis
[5] = target: T1, Tyrosinase (Agaricus bisporus); assay: Binding affinity to mushroom tyrosinase assessed as reduction in fluorescence intensity by spectrophotometric analysis
[6] = target: T1, Tyrosinase (Agaricus bisporus); assay: Binding affinity to mushroom tyrosinase assessed as reduction in fluorescence intensity at 0 to 10 uM by fluorescence-spectrophotometric analysis; set-up: scale not given: the % may be the effect or the level left
[7] = target: T1, Tyrosinase (Agaricus bisporus); assay: Binding affinity to mushroom tyrosinase assessed as induction of red shift in spectra by fluorescence-spectrophotometric analysis
[8] = Binding affinity to tyrosine assessed as decrease in maximum fluorescence emission intensity of tyrosine at 48 uM by spectrophotometric analysis; set-up: scale not given: the % may be the effect or the level left
[9] = Binding affinity to L-DOPA assessed as decrease in maximum fluorescence emission intensity of L-DOPA at 48 uM by spectrophotometric analysis; set-up: scale not given: the % may be the effect or the level left

- inhibition [1]: Dose-dependent effect
- IC50 (Tyrosinase [2]): 120 µM
- Ki (Tyrosinase [3]): 703 µM
- Ki (Tyrosinase [4]): 222 µM
- Activity [5]: Dose-dependent effect
- Activity [6]: 77.2%
- Activity [7]: Active
- Activity [8]: 53.1%
- Activity [9]: 44.8%
SMILES: Oc1nc(-c2ccc(F)cc2)nc2ccccc12
